Experiments:
[1] = test system: Psoas muscle; experiment: Activation of fast twitch skeletal muscle in rabbit psoas muscle myofibrils by measuring increase in myofibril ATPase activity at 25% calcium concentration; format: functional; conditions: Oryctolagus cuniculus
[2] = test system: Psoas muscle; experiment: Increase in psoas muscle force in rabbit skinned single fiber preparation at a calcium concentration that produces a force increase that is 25% of the maximum response in a control preparation by skinned fast skeletal muscle fiber assay; format: functional; conditions: Oryctolagus cuniculus
[3] = Metabolic stability in human liver microsomes assessed as intrinsic clearance measured after 90 mins by HPLC/MS/MS analysis; format: ADME, Microsome; conditions: read-out: CLH
[4] = biological target: hERG (KCNH2) (Homo sapiens, UniProt Q12809); experiment: Displacement of [3H]astemizole from human ERG expressed in HEK293 cells at 100 uM relative to control; format: cell-based; conditions: HEK293 cells that express hERG, probe [3H]astemizole
hERG (KCNH2), sequence (Q12809 whole entry): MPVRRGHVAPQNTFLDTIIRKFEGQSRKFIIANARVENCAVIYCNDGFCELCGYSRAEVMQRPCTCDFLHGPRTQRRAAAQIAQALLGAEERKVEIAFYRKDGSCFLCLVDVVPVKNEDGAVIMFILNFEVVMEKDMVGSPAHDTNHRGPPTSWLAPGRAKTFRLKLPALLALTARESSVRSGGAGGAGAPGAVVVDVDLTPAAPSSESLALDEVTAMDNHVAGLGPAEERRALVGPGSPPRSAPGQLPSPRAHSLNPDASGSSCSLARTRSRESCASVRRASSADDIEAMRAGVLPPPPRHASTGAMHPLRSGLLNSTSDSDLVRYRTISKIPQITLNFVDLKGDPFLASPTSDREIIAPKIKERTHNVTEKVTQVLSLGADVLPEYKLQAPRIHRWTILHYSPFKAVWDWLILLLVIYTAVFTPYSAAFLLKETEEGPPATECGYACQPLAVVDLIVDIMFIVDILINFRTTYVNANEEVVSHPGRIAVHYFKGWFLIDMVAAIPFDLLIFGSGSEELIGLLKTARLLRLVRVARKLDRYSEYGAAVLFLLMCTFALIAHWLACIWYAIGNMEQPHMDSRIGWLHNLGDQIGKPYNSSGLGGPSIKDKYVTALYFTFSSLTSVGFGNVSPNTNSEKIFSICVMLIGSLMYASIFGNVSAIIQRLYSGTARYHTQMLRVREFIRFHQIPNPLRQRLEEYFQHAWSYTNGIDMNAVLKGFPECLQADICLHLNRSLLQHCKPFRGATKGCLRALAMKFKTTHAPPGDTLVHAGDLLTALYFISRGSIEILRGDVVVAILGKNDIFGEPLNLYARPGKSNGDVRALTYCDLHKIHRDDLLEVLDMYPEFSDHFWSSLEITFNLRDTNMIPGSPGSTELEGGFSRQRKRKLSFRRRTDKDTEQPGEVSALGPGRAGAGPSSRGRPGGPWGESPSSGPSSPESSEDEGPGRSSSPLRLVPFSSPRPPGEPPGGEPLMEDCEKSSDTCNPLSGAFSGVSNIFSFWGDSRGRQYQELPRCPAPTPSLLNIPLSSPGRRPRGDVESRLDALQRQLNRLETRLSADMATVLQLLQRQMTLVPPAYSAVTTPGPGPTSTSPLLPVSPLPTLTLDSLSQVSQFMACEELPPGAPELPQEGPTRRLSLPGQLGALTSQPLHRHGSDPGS

[5] = biological target: Voltage-gated inwardly rectifying potassium channel KCNH2 (Homo sapiens, UniProt Q12809); experiment: Inhibition of human ERG expressed in HEK293 cells at -80 mV holding potential by patch clamp assay; format: cell-based
Voltage-gated inwardly rectifying potassium channel KCNH2, sequence (Q12809 whole entry): as above

[6] = Intrinsic clearance in male rat hepatocytes; format: ADME, cell-based, Hepatocyte; conditions: read-out: CLH
[7] = Volume of distribution at steady state in male Sprague-Dawley rat at 1 mg/kg, po administered as single dose measured up to 24 hrs by HPLC analysis; format: ADME, organism-based; conditions: in vivo
[8] = Metabolic stability in male rat liver microsomes assessed as intrinsic clearance measured after 90 mins by HPLC/MS/MS analysis; format: ADME, Microsome; conditions: read-out: CLH
[9] = Clearance in male Sprague-Dawley rat at 1 mg/kg, po administered as single dose measured up to 24 hrs by HPLC analysis; format: ADME, organism-based; conditions: in vivo
[10] = biological target: T1, Nuclear receptor subfamily 1 group I member 2 (Homo sapiens, UniProt O75469); experiment: Transactivation of human PXR transfected in DPX2 cells assessed as CYP3A4 induction at 10 uM by luciferase reporter gene assay; format: ADME, cell-based; conditions: dpx2, 10 µM
T1 sequence (O75469 whole entry): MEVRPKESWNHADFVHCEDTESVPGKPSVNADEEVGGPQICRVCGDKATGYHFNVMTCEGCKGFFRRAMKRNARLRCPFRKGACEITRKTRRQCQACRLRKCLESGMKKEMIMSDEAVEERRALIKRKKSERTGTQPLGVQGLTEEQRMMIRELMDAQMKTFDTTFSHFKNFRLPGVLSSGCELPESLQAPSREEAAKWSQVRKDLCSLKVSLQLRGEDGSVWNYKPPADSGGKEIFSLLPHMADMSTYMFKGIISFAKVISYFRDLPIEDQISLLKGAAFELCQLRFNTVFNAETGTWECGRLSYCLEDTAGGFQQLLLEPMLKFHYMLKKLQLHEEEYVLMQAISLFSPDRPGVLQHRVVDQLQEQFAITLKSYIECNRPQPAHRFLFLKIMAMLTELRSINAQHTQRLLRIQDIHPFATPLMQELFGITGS

[11] = Plasma protein binding in male rat assessed as unbound fraction; format: ADME, cell-free
[12] = Oral bioavailability in male Sprague-Dawley rat at 1 mg/kg administered as single dose measured up to 24 hrs by HPLC analysis; format: ADME, organism-based; conditions: in vivo
[13] = Drug distribution in Sprague-Dawley rat extensor digitorum longus to blood ratio at 100 mg/kg, po by HPLC analysis; format: ADME, organism-based
[14] = Efflux ratio of apparent permeability in human Caco-2 cells; format: ADME, cell-based
[15] = Clearance in male Sprague-Dawley rat at 3 mg/kg, po administered as single dose measured up to 24 hrs by HPLC analysis; format: ADME, organism-based; conditions: in vivo
[16] = Drug distribution in Sprague-Dawley rat brain to blood ratio at 100 mg/kg, po by HPLC analysis; format: ADME, organism-based
[17] = Drug distribution in Sprague-Dawley rat Soleus muscle to blood ratio at 100 mg/kg, po by HPLC analysis; format: ADME, organism-based
[18] = Drug distribution in Sprague-Dawley rat plasma to blood ratio at 100 mg/kg, po by HPLC analysis; format: ADME, organism-based; conditions: in vivo
[19] = Volume of distribution at steady state in male Sprague-Dawley rat at 3 mg/kg, po administered as single dose measured up to 24 hrs by HPLC analysis; format: ADME, organism-based; conditions: in vivo
[20] = test system: Extensor digitorum longus; experiment: Increase in muscle tension in rat extensor digitorum longus muscle rat model assessed as free plasma concentration to increase muscle tension at subtetanic nerve stimulation rate of 30 Hz; format: functional, tissue-based

With `NC(=O)c1cccc(-c2ccc(NCC3(c4ccc(F)cn4)CCC3)nn2)c1` the EC40 [1] was 3500 nM, the EC30 [2] was 2300 nM and the CLint scaled [3] was < 7 mL/min/kg.
With `NC(=O)c1ccn(-c2cnc(NCC3(c4ncccc4F)CCC3)nc2)c1` the EC40 [1] was 1300 nM, the inhibition at 100 µM [4] was 43% and the EC30 [2] was 1400 nM. For the same compound, the CLint scaled [3] was < 14 mL/min/kg.
For `NC(=O)c1cnc(-c2ccc(NCC3(c4ncccc4F)CCC3)nn2)s1`, the IC50 [5] was > 100000 nM, the EC40 [1] was 100 nM and the EC30 [2] was 400 nM.
Compound `NC(=O)c1ccn(-c2ccc(NCC3(c4ncccc4F)CCC3)nn2)c1` has a CLint scaled [6] of 207 mL/min/kg, an IC50 [5] of 97000 nM and a Vdss [7] of 2.4 L/kg. For the same compound, the EC40 [1] was 900 nM, the CLint scaled [8] was 26 mL/min/kg and the inhibition at 100 µM [4] was 27%. For the same compound, the CL/F [9] was 73 mL/min/kg, the Activity [10] was 43% and the EC30 [2] was 1100 nM. The fraction unbound [11] was 0.35 and the CLint scaled [3] was < 14 mL/min/kg.
`Fc1ccc(Cc2nsc(NCCc3ccccc3)n2)cc1` gave an EC40 [1] of 23300 nM.
Work on `NC(=O)c1ccn(-c2ccc(NCC3(c4ncccc4F)CCC3)nn2)n1` yielded an EC40 [1] of 22700 nM.
With `CN(C)C(=O)c1cnn(-c2ccc(NCC3(c4ncccc4F)CCC3)nn2)c1` the EC40 [1] was 20200 nM.
In the case of `NC(=O)c1cccc(-c2ccc(NCC3(c4ccc(F)cc4)CCC3)nn2)c1`, the EC40 [1] is reported as 200 nM, the EC30 [2] is reported as 600 nM and the CLint scaled [3] is reported as 15 mL/min/kg.
Compound `Fc1ccc(CCNc2nc(Cc3ccc(F)cc3)ns2)cc1` has an EC40 [1] of 9900 nM.
In the case of `CC(C)(CNc1cnc(-c2cccc(C(N)=O)c2)nc1)c1ccc(F)cc1`, the EC40 [1] is reported as 3600 nM.
For `CC(C)(CNc1nsc(-c2cccc(C(N)=O)c2)n1)c1ccc(F)cc1`, the EC40 [1] was 500 nM and the EC30 [2] was 7100 nM.
With `CN(C)C(=O)c1cccc(-c2nsc(NCC(C)(C)c3ccc(F)cc3)n2)c1` the EC40 [1] was 2900 nM and the EC30 [2] was 3100 nM.
With `NC(=O)c1cccc(-c2ccc(NCC3(c4ccccn4)CCC3)nn2)c1` the EC40 [1] was 500 nM, the EC30 [2] was 900 nM and the CLint scaled [3] was < 7 mL/min/kg.
For `NC(=O)c1cnn(-c2ccc(NCC3(c4ncccc4F)CCC3)nn2)c1`, the CLint scaled [6] was 378 mL/min/kg, the IC50 [5] was > 100000 nM and the Vdss [7] was 2.2 L/kg. The EC40 [1] was 500 nM, the CLint scaled [8] was 30 mL/min/kg and the inhibition at 100 µM [4] was 19%. The CL/F [9] was 136 mL/min/kg, the bioavailability [12] was 12% and the EC30 [2] was 700 nM. For the same compound, the fraction unbound [11] was 0.42 and the CLint scaled [3] was < 14 mL/min/kg.
In the case of `CNC(=O)c1cccc(-c2cnc(NC[C@]3(c4ncccc4F)C[C@H](F)C3)nc2)c1`, the CLint scaled [6] is reported as < 32 mL/min/kg, the Kp [13] is reported as 0.54 and the efflux ratio [14] is reported as 10. It also gave a CL/F [15] of 52 mL/min/kg, an EC40 [1] of 900 nM and a CLint scaled [8] of 14 mL/min/kg. For the same compound, the inhibition at 100 µM [4] was 42%, the Kp [16] was 0.027 and the Activity [10] was 31%. It also gave an EC30 [2] of 500 nM, a Kp [17] of 0.53 and a fraction unbound [11] of 0.27. The CLint scaled [3] was < 7 mL/min/kg, the Ratio [18] was 1.15 and the Vdss [19] was 2.6 L/kg.
With `NC(=O)c1cnn(-c2ccc(NC[C@]3(c4ncccc4F)C[C@H](F)C3)nn2)c1` the CLint scaled [6] was 90 mL/min/kg, the Vdss [7] was 2.6 L/kg and the EC40 [1] was 800 nM. For the same compound, the CLint scaled [8] was 30 mL/min/kg, the inhibition at 100 µM [4] was 16% and the CL/F [9] was 115 mL/min/kg. The Activity [10] was 7%, the EC30 [2] was 1100 nM and the fraction unbound [11] was 0.55. For the same compound, the CLint scaled [3] was < 14 mL/min/kg.
With `C#Cc1cnc2nc(O)n(C(CC)CC)c2n1` [TIRASEMTIV] the efflux ratio [14] was 0.9, the EC50 [20] was 6000 nM and the Kp [16] was 0.27. For the same compound, the Kp [17] was 0.3, the fraction unbound [11] was 0.05 and the Ratio [18] was 1.62.
In the case of `CC(C)(CNc1ccc(-c2cccc(C(N)=O)c2)nc1)c1ccc(F)cc1`, the EC40 [1] is reported as 300 nM.
Work on `CC(C)(CNc1nc(-c2ccccc2)ns1)c1ccc(F)cc1` yielded an EC40 [1] of 8900 nM.
With `NC(=O)c1nccc(-c2ccc(NCC3(c4ncccc4F)CCC3)nn2)n1` the EC40 [1] was > 49000 nM.
`CC(Cc1ccc(Cl)cc1)Nc1nc(Cc2ccc(F)cc2)ns1` (configuration not stated) showed an EC40 [1] of 22100 nM.
